According to patent publication EP0943606A1, “BENZENESULFONAMIDE DERIVATIVES AND DRUGS CONTAINING THE SAME” (HOKURIKU SEIYAKU CO., LTD., priority 1996, dated 1998):

Tests used:
[1] = system: bronchoconstriction induced by U-46619; experiment: Inhibitory effect on bronchoconstriction induced by U-46619 (Konzett-Roessler); format: in vivo, Male Hartley guinea-pigs; conditions: Cavia porcellus; 0.3 mg/kg orally, 2 hours before U-46619 (4 µg/kg, cervical vein), anesthetized guinea-pigs, compared to control group; read-out: Inhibition rate (%)
Method: Airway resistance was evaluated according to the method of Konzett-Roessler [Naunyn-Schmiedberg's Arch. Exp. Path. Pharmak., Vol. 195, 71 (1940)]. Male Hartley guinea-pigs (about 400g wt.) were anesthetized with urethane (1.5g/kg, i.p.) and ventilated by an artificial respirator (Model 683; Harvard). At the same time, overflowed air volume above the pressure of about 12cm H2O was measured by using a sensor (Model 7020; Ugo Basile) and the value was used as an index of bronchoconstriction. 0.3 mg/kg (5 ml/kg) of test compounds suspended in 5% gum Arabic was administered orally to the guinea-pigs fasted beforehand for 24 hours. After 2 hours, U-46619 (4 µg/kg; Cayman) was administered through the cervical vein, and then maximal response was measured. Inhibitory rates compared to the control group were calculated based on the response rate normalized by the complete closure as 100%. […]

[2] = system: bronchoconstriction induced by leukotriene D4; experiment: Inhibitory effect on bronchoconstriction induced by leukotriene D4 (Konzett-Roessler); format: in vivo, Male Hartley guinea-pigs; conditions: Cavia porcellus; oral administration 2 hours before leukotriene D4 (1 µg/kg, cervical vein), anesthetized guinea-pigs, indomethacin and propranolol pretreated
Method: Airway resistance was evaluated according to the method of Konzett-Roessler [Naunyn-Schmiedberg's Arch. Exp. Path. Pharmak., Vol. 195, 71 (1940)]. Male Hartley guinea-pigs fasted beforehand for 24 hours were anesthetized with urethane, and then overflowed air volume was measured under artificial ventilation as an index of bronchoconstriction. Various doses of test compounds suspended in 5% gum Arabic were administered orally, and after 2 hours, leukotriene D4 (1 µg/kg; ULTRA FINE) was administered through the cervical vein. Then, values at 2 minutes were measured when maximum responses were obtained. Inhibitory rates compared to the control group were calculated based on the response rate normalized by the overflowed volume at complete closure as 100% bronchoconstriction rate, and the 50% inhibitory doses (ED50 values) were calculated using dose-inhibitory rate curves. Indomethacin (2mg/kg, i.v.) and propranolol (1mg/kg, i.v.) were administered at 10 minutes and 5 minutes before the administration of leukotriene D4, respectively. […]

leukotriene D4 = target: T1, leukotriene D4 (Cavia porcellus, UniProt Q2NNR5); experiment: Leukotriene D4 antagonistic effect (isolated trachea, leukotriene D4 concentration-response curves, Schild); set-up: species or system male Hartley guinea-pigs; conditions: isolated guinea-pig trachea, contraction by leukotriene D4, test compound treatment 30 minutes, indomethacin 1 × 10^-6M, method of Schild
T1 construct: tracheas were isolated from male Hartley guinea-pigs, and spiral specimens of approximately 2 cm length were prepared; from tissue; host or cells: isolated guinea-pig trachea (spiral strips)
T1 sequence (Q2NNR5 1-340): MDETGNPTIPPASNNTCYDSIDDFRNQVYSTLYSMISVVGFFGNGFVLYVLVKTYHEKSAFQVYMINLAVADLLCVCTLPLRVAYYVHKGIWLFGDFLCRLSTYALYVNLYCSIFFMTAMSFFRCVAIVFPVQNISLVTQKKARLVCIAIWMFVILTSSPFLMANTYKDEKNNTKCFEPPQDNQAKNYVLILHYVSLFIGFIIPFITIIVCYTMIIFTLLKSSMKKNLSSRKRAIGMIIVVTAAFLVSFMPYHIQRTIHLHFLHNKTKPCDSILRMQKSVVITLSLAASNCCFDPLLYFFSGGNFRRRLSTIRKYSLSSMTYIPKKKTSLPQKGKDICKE
Method: According to an ordinary method, tracheas were isolated from male Hartley guinea-pigs, and spiral specimens of approximately 2 cm length were prepared. These specimens were suspended isotonically in organ baths that contained Krebs-Henseleit solution at 37°C under a resting tension of 0.5g. After contractions with acetylcholine (1 × 10^-5M; Ovisot for injection, Daiichi Seiyaku), and the first concentration-response curves were obtained by cumulative applications of 10^-10 to 10^-8M of leukotriene D4 (ULTRA FINE) in the organ baths. After treatments with test compounds at adequate concentrations for 30 minutes, the second concentration-response curves were obtained in the same manner as the first applications. pKB values were calculated using these two concentration-response curves according to the method of Schild [Pharmacological Review, Vol. 9, 242 (1957)]. Indomethacin (1 × 10^-6M, Sigma) was added beforehand to the organ bath to eliminate possible affections by thromboxane A2 and prostaglandin produced by stimulus of leukotriene D4 [Japan J. Pharmacol., Vol. 60, 227 (1992)]. […]

human liver microsomes = experiment: In vitro metabolism test; format: in vitro ADME; conditions: 0.4mg protein/ml human liver microsomes, 0.02 mM test compound, NADPH-generating system, 37°C for 30 minutes, HPLC
Method: 0.05 mM EDTA-0.1M phosphate buffer (pH 7.4), distilled water, 0.4mg protein/ml human liver microsomes and 0.02 mM test compound were mixed in a test tube under ice-cooling. After the mixture was shaken at 37°C for 2 minutes beforehand, the mixture was added with a ready-mix of NADPH-generating system and then shaken at 37°C for 30 minutes. After the incubation, the reaction was stopped by cooling with ice. The mixture was added with acetonitrile and well mixted, and then centrifuged at 3000 rpm for 10 minutes. The resulting supernatant was subjected to HPLC measurement, and the residual rate of test compound was calculated from the ratio of a peak area of an unchanged compound in the reaction sample in comparison with a non-reaction mixture. Preparations of reagents and reaction mixtures were carried out by referring to Shin Seikagaku Koza, Vol. 5: Biological oxidation and drug metabolism edited by The Japanese Biochemical Society. […]

[3] = target: T2, thromboxane A2 / prostaglandin H2 receptor (Cavia porcellus, UniProt A0A286Y4I8); experiment: Thromboxane A2 antagonistic effect (isolated trachea, U-46619 concentration-response curves, Schild); set-up: species or system male Hartley guinea-pigs; conditions: isolated guinea-pig trachea, contraction by U-46619, test compound treatment 5 minutes, indomethacin 3 × 10^-6M, method of Schild
T2 construct: tracheas were isolated from male Hartley guinea-pigs, and spiral specimens of approximately 2 cm length were prepared; from tissue; host or cells: isolated guinea-pig trachea (spiral strips)
T2 sequence (A0A286Y4I8 1-347): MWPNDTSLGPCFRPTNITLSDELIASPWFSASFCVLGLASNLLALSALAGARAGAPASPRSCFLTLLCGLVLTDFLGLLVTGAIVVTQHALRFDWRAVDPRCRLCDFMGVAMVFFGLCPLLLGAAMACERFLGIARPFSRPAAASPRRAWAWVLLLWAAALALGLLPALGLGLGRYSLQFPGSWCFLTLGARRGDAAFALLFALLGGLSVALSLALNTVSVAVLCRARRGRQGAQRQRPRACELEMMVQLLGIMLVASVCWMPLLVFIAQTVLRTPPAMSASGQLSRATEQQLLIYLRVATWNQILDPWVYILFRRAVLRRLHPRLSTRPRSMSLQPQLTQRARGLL
Method: According to an ordinary method, tracheas were isolated from male Hartley guinea-pigs, and spiral specimens of approximately 2 cm length were prepared. These specimens were suspended in organ baths that contained Krebs-Henseleit solution at 37°C under a resting tension of 1.5 g, and the changes in isometric tension were recorded. The first concentration-response curves were obtained by cumulative applications of 1 × 10^-9 to 3 × 10^-7M of U-46619 (Cayman, thromboxane A2 / prostaglandin H2 receptor agonist) in the organ baths. After treatments with test compounds at adequate concentrations for 5 minutes, the second concentration-response curves were obtained in the same manner as the first applications. pKB values were calculated using these two concentration-response curves according to the method of Schild [Pharmacological Review, Vol. 9, 242 (1957)]. Indomethacin (3 × 10^-6M, Sigma) was added beforehand to the organ bath to eliminate possible affections by thromboxane A2 and prostaglandin produced endogenously [Japan J. Pharmacol., Vol. 60, 227 (1992)].

Row | Compound | inhibition in vivo at 0.3 mg/kg [1] [%] | ED50 [2] [mg/kg] | Kb (leukotriene D4) [nM] | Residual rate (%) (human liver microsomes) | Kb [3] [nM]
1 | O=C(O)CCCc1ccc(C(CCCC(F)(F)C(F)(F)F)NS(=O)(=O)c2ccc(Cl)cc2)s1 (centres unmarked) [Example 162, 4-[5-[1-(4-Chlorophenylsulfonylamino)-5,5,6,6,6-pentafluorohexyl]-2-thienyl]butyric Acid] | 85 | 1.3 | 251 | 72 | 0.398
2 | O=C(O)CCCc1ccc(C(CCCC(F)(F)C(F)(F)F)NS(=O)(=O)c2ccc(F)cc2)s1 (centres unmarked) [Example 163, 4-[5-[5,5,6,6,6-Pentafluoro-1-(4-fluorophenylsulfonylamino)hexyl]-2-thienyl]butyric Acid] | 92 | 0.78 | 398 | 87 | 0.794
3 | O=C(O)CCCc1ccc(C(CCCCCC(F)(F)F)NS(=O)(=O)c2ccc(F)cc2)s1 (centres unmarked) [Example 172, 4-[5-[7,7,7-Trifluoro-1-(4-fluorophenylsulfonylamino)heptyl]-2-thienyl]butyric Acid] | 73 | 2.4 | 251 | 84 | 0.398
4 | O=C(O)CCCc1ccc(C(CCC(F)(F)C(F)(F)C(F)(F)F)NS(=O)(=O)c2ccc(F)cc2)s1 (centres unmarked) [Example 176, 4-[5-[4,4,5,5,6,6,6-Heptafluoro-1-(4-fluorophenylsulfonylamino)hexyl]-2-thienyl]butyric Acid] | 78 | 0.14 | 126 | 86 | 3.16
5 | O=C(O)CCCc1ccc(C(CCCC(F)(F)C(F)(F)C(F)(F)F)NS(=O)(=O)c2ccc(Cl)cc2)s1 (centres unmarked) [Example 177, 4-[5-[1-(4-Chlorophenylsulfonylamino)-5,5,6,6,7,7,7-heptafluoroheptyl]-2-thienyl]butyric Acid] | 93 | 0.69 | 398 | 87 | 6.31
6 | O=C(O)CCCc1ccc(C(CCCC(F)(F)C(F)(F)C(F)(F)F)NS(=O)(=O)c2ccc(F)cc2)s1 (centres unmarked) [Example 178, 4-[5-[5,5,6,6,7,7,7-Heptafluoro-1-(4-fluorophenylsulfonylamino)heptyl]-2-thienyl]butyric Acid] | 89 | 0.67 | 398 | 84 | 3.16
7 | O=C(O)CCCc1ccc(C(CCC(F)(F)C(F)(F)C(F)(F)C(F)(F)F)NS(=O)(=O)c2ccc(F)cc2)s1 (centres unmarked) [Example 179, 4-[5-[4,4,5,5,6,6,7,7,7-Nonafluoro-1-(4-fluorophenylsulfonylamino)heptyl]-2-thienyl]butyric Acid] | 93 | 0.17 | 100 | 78 | 7.94
8 | O=C(O)CCCc1ccc(C(CCCC(F)(C(F)(F)F)C(F)(F)F)NS(=O)(=O)c2ccc(F)cc2)s1 (centres unmarked) [Example 183, 4-[5-[5,6,6.6-Tetrafluoro-5-trifluoromethyl-1-(4-fluorophenylsulfonylamino)hexyl]-2-thienyl]butyric Acid] | 89 | 1.1 | 398 | 78 | 2
9 | O=C(O)CCCc1ccc(C(CCCC(F)(F)C(F)(F)F)NS(=O)(=O)c2ccc(Cl)cc2)cc1 (centres unmarked) [Example 188, 4-[4-[1-(4-Chlorophenylsulfonylamino)-5,5,6,6,6-pentafluorohexyl]phenyl]butyric Acid] | 88 | 1.6 | 200 | 74 | 0.794
10 | O=C(O)CCCc1ccc(C(CCCC(F)(F)C(F)(F)F)NS(=O)(=O)c2ccc(F)cc2)cc1 (centres unmarked) [Example 189, 4-[4-[5,5,6,6,6-Pentafluoro-1-(4-fluorophenylsulfonylamino)hexyl]phenyl]butyric Acid] | 71 | 0.92 | 251 | 88 | 2.51
11 | O=C(O)CCCc1ccc(C(CCC(F)(F)C(F)(F)C(F)(F)F)NS(=O)(=O)c2ccc(F)cc2)cc1 (centres unmarked) [Example 200, 4-[4-[4,4,5,5,6,6,6-Heptafluoro-1-(4-fluorophenylsulfonylamino)hexyl]phenyl]butyric Acid] | 82 | 0.21 | 251 | 83 | 10
12 | O=C(O)CCCc1ccc(C(CCCC(F)(F)C(F)(F)C(F)(F)F)NS(=O)(=O)c2ccc(F)cc2)cc1 (centres unmarked) [Example 202, 4-[4-[5,5,6,6,7,7,7-Heptafluoro-1-(4-fluorophenylsulfonylamino)heptyl]phenyl]butyric Acid] | 85 | 0.97 | 794 | 93 | 12.6
13 | CCCCCC(NS(=O)(=O)c1ccc(Cl)cc1)c1ccc(CCCC(=O)O)cc1 (centres unmarked) [Reference compound 1, 4-[4-[1-(4-Chlorophenylsulfonylamino)hexyl]phenyl]butyric acid, reference compound] | 85 | 8.1 | 200 | 53 | 1
